What was measured:
Format in all cases: in vivo
Velvetleaf [1] = assay: post-emergence herbicide test; conditions: Abutilon theophrasti, post-emergence, 0.25 lb/A; read-out: % plant inhibition
Outline: (§1)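 Plants grown in greenhouse soil pans for two to three weeks were sprayed with compound in about 0.4% v/v emulsifier at 170.3 kPa and 1870 L/Ha, at the stated application rates. Activity was scored as percent inhibition of each species.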

Soybean [2] = assay: post-emergence herbicide test; conditions: Glycine max, post-emergence, 0.25 lb/A; read-out: % plant inhibition
Outline: as §1

Morning Glory [3] = assay: post-emergence herbicide test; conditions: Ipomoea, post-emergence, 0.25 lb/A; read-out: % plant inhibition
Outline: as §1

Blackgrass [4] = assay: post-emergence herbicide test; conditions: Alopecurus myosuroides, post-emergence, 0.25 lb/A; read-out: % plant inhibition
Outline: as §1

Giant Foxtail [5] = assay: post-emergence herbicide test; conditions: Setaria faberi, post-emergence, 0.25 lb/A; read-out: % plant inhibition
Outline: as §1

Cocklebur [6] = assay: post-emergence herbicide test; conditions: Xanthium strumarium, post-emergence, 0.25 lb/A; read-out: % plant inhibition
Outline: as §1

Rape [7] = assay: post-emergence herbicide test; conditions: post-emergence, 0.25 lb/A; read-out: % plant inhibition
Outline: as §1

Downy Brome [8] = assay: post-emergence herbicide test; conditions: Bromus tectorum, post-emergence, 0.25 lb/A; read-out: % plant inhibition
Outline: as §1

Green Foxtail [9] = assay: post-emergence herbicide test; conditions: Setaria viridis, post-emergence, 0.25 lb/A; read-out: % plant inhibition
Outline: as §1

Common Chickweed [10] = assay: post-emergence herbicide test; conditions: post-emergence, 0.25 lb/A; read-out: % plant inhibition
Outline: as §1

Birdseye Speedwell [11] = assay: post-emergence herbicide test; conditions: post-emergence, 0.25 lb/A; read-out: % plant inhibition
Outline: as §1

Wheat [12] = assay: post-emergence herbicide test; conditions: Triticum aestivum, post-emergence, 0.25 lb/A; read-out: % plant inhibition
Outline: as §1

Wild Oats [13] = assay: post-emergence herbicide test; conditions: Avena fatua, post-emergence, 0.25 lb/A; read-out: % plant inhibition
Outline: as §1

Corn [14] = assay: post-emergence herbicide test; conditions: Zea mays, post-emergence, 0.25 lb/A; read-out: % plant inhibition
Outline: as §1

Seedling Johnsongrass [15] = assay: post-emergence herbicide test; conditions: Sorghum halepense, post-emergence, 0.25 lb/A; read-out: % plant inhibition
Outline: as §1

Barnyardgrass [16] = assay: post-emergence herbicide test; conditions: Echinochloa crus-galli, post-emergence, 0.25 lb/A; read-out: % plant inhibition
Outline: as §1

Bedstraw Catchweed [17] = assay: post-emergence herbicide test; conditions: Galium aparine, post-emergence, 0.25 lb/A; read-out: % plant inhibition
Outline: as §1

Velvetleaf [18] = assay: pre-emergence herbicide test; conditions: Abutilon theophrasti, pre-emergence, 0.25 lb/A; read-out: % plant inhibition
Outline: (§2)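 Seeds were sown on compacted topsoil in pans and covered with a topsoil layer carrying a known amount of active ingredient in acetone or water, applied before or after covering. Pans were bottom-watered on a greenhouse bench, and % inhibition was scored about 14 days after seeding and treatment.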

Soybean [19] = assay: pre-emergence herbicide test; conditions: Glycine max, pre-emergence, 0.25 lb/A; read-out: % plant inhibition
Outline: as §2

Morning Glory [20] = assay: pre-emergence herbicide test; conditions: Ipomoea, pre-emergence, 0.25 lb/A; read-out: % plant inhibition
Outline: as §2

Blackgrass [21] = assay: pre-emergence herbicide test; conditions: Alopecurus myosuroides, pre-emergence, 0.25 lb/A; read-out: % plant inhibition
Outline: as §2

Giant Foxtail [22] = assay: pre-emergence herbicide test; conditions: Setaria faberi, pre-emergence, 0.25 lb/A; read-out: % plant inhibition
Outline: as §2

Cocklebur [23] = assay: pre-emergence herbicide test; conditions: Xanthium strumarium, pre-emergence, 0.25 lb/A; read-out: % plant inhibition
Outline: as §2

Rape [24] = assay: pre-emergence herbicide test; conditions: pre-emergence, 0.25 lb/A; read-out: % plant inhibition
Outline: as §2

Downy Brome [25] = assay: pre-emergence herbicide test; conditions: Bromus tectorum, pre-emergence, 0.25 lb/A; read-out: % plant inhibition
Outline: as §2

Green Foxtail [26] = assay: pre-emergence herbicide test; conditions: Setaria viridis, pre-emergence; 0.25 lb/A; read-out: % plant inhibition
Outline: as §2

Common Chickweed [27] = assay: pre-emergence herbicide test; conditions: pre-emergence, 0.25 lb/A; read-out: % plant inhibition
Outline: as §2

Birdseye Speedwell [28] = assay: pre-emergence herbicide test; conditions: pre-emergence, 0.25 lb/A; read-out: % plant inhibition
Outline: as §2

Wheat [29] = assay: pre-emergence herbicide test; conditions: Triticum aestivum, pre-emergence, 0.25 lb/A; read-out: % plant inhibition
Outline: as §2

Wild Oats [30] = assay: pre-emergence herbicide test; conditions: Avena fatua, pre-emergence, 0.25 lb/A; read-out: % plant inhibition
Outline: as §2

Corn [31] = assay: pre-emergence herbicide test; conditions: Zea mays, pre-emergence, 0.25 lb/A; read-out: % plant inhibition
Outline: as §2

Seedling Johnsongrass [32] = assay: pre-emergence herbicide test; conditions: Sorghum halepense, pre-emergence, 0.25 lb/A; read-out: % plant inhibition
Outline: as §2

Barnyardgrass [33] = assay: pre-emergence herbicide test; conditions: Echinochloa crus-galli, pre-emergence, 0.25 lb/A; read-out: % plant inhibition
Outline: as §2

Bedstraw Catchweed [34] = assay: pre-emergence herbicide test; conditions: Galium aparine, pre-emergence, 0.25 lb/A; read-out: % plant inhibition
Outline: as §2

| SMILES | inhibition at 280.212 g/ha (Velvetleaf [1]) [%] | inhibition at 280.212 g/ha (Soybean [2]) [%] | inhibition at 280.212 g/ha (Morning Glory [3]) [%] | inhibition at 280.212 g/ha (Blackgrass [4]) [%] | inhibition at 280.212 g/ha (Giant Foxtail [5]) [%] | inhibition at 280.212 g/ha (Cocklebur [6]) [%] | inhibition at 280.212 g/ha (Rape [7]) [%] | inhibition at 280.212 g/ha (Downy Brome [8]) [%] | inhibition at 280.212 g/ha (Green Foxtail [9]) [%] | inhibition at 280.212 g/ha (Common Chickweed [10]) [%] | inhibition at 280.212 g/ha (Birdseye Speedwell [11]) [%] | inhibition at 280.212 g/ha (Wheat [12]) [%] | inhibition at 280.212 g/ha (Wild Oats [13]) [%] | inhibition at 280.212 g/ha (Corn [14]) [%] | inhibition at 280.212 g/ha (Seedling Johnsongrass [15]) [%] | inhibition at 280.212 g/ha (Barnyardgrass [16]) [%] | inhibition at 280.212 g/ha (Bedstraw Catchweed [17]) [%] | inhibition at 280.212 g/ha (Velvetleaf [18]) [%] | inhibition at 280.212 g/ha (Soybean [19]) [%] | inhibition at 280.212 g/ha (Morning Glory [20]) [%] | also measured |
| --- | --- | --- | --- | --- | --- | --- | --- | --- | --- | --- | --- | --- | --- | --- | --- | --- | --- | --- | --- | --- | --- |
| CSCc1cc(-c2nn(C)c(C(F)(F)F)c2C)c(F)cc1Cl [Compound 27] | 98 | 80 | 95 | 30 | 35 | 80 | 50 | 40 | 75 | 65 | 100 | 13 | 25 | 65 | 90 | 70 | 90 | 90 | 3 | 75 | inhibition at 280.212 g/ha (Blackgrass [21]): 35%; inhibition at 280.212 g/ha (Giant Foxtail [22]): 50%; inhibition at 280.212 g/ha (Cocklebur [23]): 20%; inhibition at 280.212 g/ha (Rape [24]): 10%; inhibition at 280.212 g/ha (Downy Brome [25]): 5%; inhibition at 280.212 g/ha (Green Foxtail [26]): 100%; inhibition at 280.212 g/ha (Common Chickweed [27]): 75%; inhibition at 280.212 g/ha (Birdseye Speedwell [28]): 35%; inhibition at 280.212 g/ha (Wheat [29]): 0%; inhibition at 280.212 g/ha (Wild Oats [30]): 5%; inhibition at 280.212 g/ha (Corn [31]): 5%; inhibition at 280.212 g/ha (Seedling Johnsongrass [32]): 90%; inhibition at 280.212 g/ha (Barnyardgrass [33]): 60%; inhibition at 280.212 g/ha (Bedstraw Catchweed [34]): 65% |
| Cc1c(-c2cc(CS(C)(=O)=O)c(Cl)cc2F)nn(C)c1C(F)(F)F [Compound 28] | 60 | 20 | 65 | 10 | 25 | 40 | 20 | 20 | 50 | 25 | 85 | 8 | 15 | 40 | 20 | 10 | 60 | 45 | 0 | 0 | inhibition at 280.212 g/ha (Blackgrass [21]): 30%; inhibition at 280.212 g/ha (Giant Foxtail [22]): 30%; inhibition at 280.212 g/ha (Cocklebur [23]): 10%; inhibition at 280.212 g/ha (Rape [24]): 5%; inhibition at 280.212 g/ha (Downy Brome [25]): 0%; inhibition at 280.212 g/ha (Green Foxtail [26]): 90%; inhibition at 280.212 g/ha (Common Chickweed [27]): 25%; inhibition at 280.212 g/ha (Birdseye Speedwell [28]): 70%; inhibition at 280.212 g/ha (Wheat [29]): 0%; inhibition at 280.212 g/ha (Wild Oats [30]): 0%; inhibition at 280.212 g/ha (Corn [31]): 3%; inhibition at 280.212 g/ha (Seedling Johnsongrass [32]): 50%; inhibition at 280.212 g/ha (Barnyardgrass [33]): 15%; inhibition at 280.212 g/ha (Bedstraw Catchweed [34]): 40% |
| Cc1c(-c2cc(CSC(C)C)c(Cl)cc2F)nn(C)c1C(F)(F)F [Compound 29] | 99 | 90 | 90 | 70 | 65 | 90 | 100 | 70 | 95 | 95 | 100 | 12 | 75 | 20 | 90 | 90 | 100 | 70 | 20 | 65 | inhibition at 280.212 g/ha (Blackgrass [21]): 40%; inhibition at 280.212 g/ha (Giant Foxtail [22]): 95%; inhibition at 280.212 g/ha (Cocklebur [23]): 15%; inhibition at 280.212 g/ha (Rape [24]): 15%; inhibition at 280.212 g/ha (Downy Brome [25]): 10%; inhibition at 280.212 g/ha (Green Foxtail [26]): 95%; inhibition at 280.212 g/ha (Common Chickweed [27]): 90%; inhibition at 280.212 g/ha (Birdseye Speedwell [28]): 70%; inhibition at 280.212 g/ha (Wheat [29]): 0%; inhibition at 280.212 g/ha (Wild Oats [30]): 15%; inhibition at 280.212 g/ha (Corn [31]): 30%; inhibition at 280.212 g/ha (Seedling Johnsongrass [32]): 100%; inhibition at 280.212 g/ha (Barnyardgrass [33]): 80%; inhibition at 280.212 g/ha (Bedstraw Catchweed [34]): 70% |
